Laboratory results published in the supplement of paper PMC10307832.

Experiments:
Experiment in all cases: relative viability (nuclei count vs DMSO), 5 days (fraction); higher = more cells survive
XMD8-85 + Tozasertib = compound: CN1CCN(CC1)C2=CC(=C(C=C2)NC3=NC=C4C(=N3)N(C5=CC=CC=C5C(=O)N4C)C)OC [XMD8-85] + Cc1cc(Nc2cc(N3CCN(C)CC3)nc(Sc3ccc(NC(=O)C4CC4)cc3)n2)n[nH]1 [Tozasertib] (partner 0.1 µM)
Outline: (§1)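 Nuclei were stained with Hoechst during a one-step fixation (final 0.05% Triton X-100, 1% formaldehyde, 1 ug/ml Hoechst) carried out 5 days after dosing, then counted on 4× images. The cells, lung cancer lines in 1536-well plates, had been dosed by pin tool the day after seeding with one drug alone or a fixed anchor-drug dose plus five library-drug doses (not always all listed) in √10 steps. Relative viability is the nuclei count in treated wells divided by that in vehicle wells, and each value is the median of duplicate plates.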

XMD8-85 + Phenformin = compound: CN1CCN(CC1)C2=CC(=C(C=C2)NC3=NC=C4C(=N3)N(C5=CC=CC=C5C(=O)N4C)C)OC [XMD8-85] + N=C(N)NC(=N)NCCc1ccccc1 [Phenformin] (partner 250 µM)
Outline: as §1

4EGI-1 + Bortezomib = compound: O=C(O)C(Cc1ccccc1[N+](=O)[O-])=NNc1nc(-c2ccc(Cl)c(Cl)c2)cs1 (mixture of isomers) [4EGI-1] + CC(C)C[C@H](NC(=O)[C@H](Cc1ccccc1)NC(=O)c1cnccn1)B(O)O [Bortezomib] (partner 0.002 µM)
Outline: as §1

4EGI-1 + Lapatinib = compound: O=C(O)C(Cc1ccccc1[N+](=O)[O-])=NNc1nc(-c2ccc(Cl)c(Cl)c2)cs1 (mixture of isomers) [4EGI-1] + CS(=O)(=O)CCNCc1ccc(-c2ccc3ncnc(Nc4ccc(OCc5cccc(F)c5)c(Cl)c4)c3c2)o1 [Lapatinib] (partner 2 µM)
Outline: as §1

Row | Cell Line | relative viability (XMD8-85 + Tozasertib; first compound 0.08 µM) | relative viability (XMD8-85 + Tozasertib; first compound 0.253 µM) | relative viability (XMD8-85 + Tozasertib; first compound 0.8 µM) | relative viability (XMD8-85 + Tozasertib; first compound 2.53 µM) | relative viability (XMD8-85 + Tozasertib; first compound 8 µM) | relative viability (XMD8-85 + Phenformin; first compound 0.08 µM) | relative viability (XMD8-85 + Phenformin; first compound 0.253 µM) | relative viability (XMD8-85 + Phenformin; first compound 0.8 µM) | relative viability (XMD8-85 + Phenformin; first compound 2.53 µM) | relative viability (XMD8-85 + Phenformin; first compound 8 µM) | relative viability (4EGI-1 + Bortezomib; first compound 0.5 µM) | relative viability (4EGI-1 + Bortezomib; first compound 1.581 µM) | relative viability (4EGI-1 + Bortezomib; first compound 5 µM) | relative viability (4EGI-1 + Bortezomib; first compound 15.81 µM) | relative viability (4EGI-1 + Bortezomib; first compound 50 µM) | relative viability (4EGI-1 + Lapatinib; first compound 0.5 µM) | relative viability (4EGI-1 + Lapatinib; first compound 1.581 µM) | relative viability (4EGI-1 + Lapatinib; first compound 5 µM) | relative viability (4EGI-1 + Lapatinib; first compound 15.81 µM) | relative viability (4EGI-1 + Lapatinib; first compound 50 µM)
1 | NCI-H1975 | 0.701 | 0.721 | 0.763 | 0.485 | 0.145 | 0.402 | 0.409 | 0.446 | 0.464 | 0.312 | 0.475 | 0.393 | 0.399 | 0.36 | 0.348 | 1.05 | 0.916 | 0.916 | 0.93 | 0.287
2 | H3255 | 0.599 | 0.646 | 0.651 | 0.25 | 0.469 | 0.401 | 0.373 | 0.339 | 0.726 |  | 0.843 | 0.663 | 0.796 | 0.576 | 0.48 | 0.254 | 0.228 | 0.259 | 0.222 | 0.279
3 | COR-L 105 | 0.405 | 0.363 | 0.338 | 0.377 | 0.26 | 0.406 | 0.445 | 0.453 | 0.432 | 0.248 | 0.876 | 0.592 | 0.725 | 0.424 | 0.252 | 0.421 | 0.38 | 0.371 | 0.343 | 0.293
4 | EBC-1 |  |  |  |  |  |  |  |  |  |  | 0.668 | 0.547 | 0.704 | 0.52 | 0.181 | 0.205 | 0.246 | 0.201 | 0.217 | 0.166
